Reference: ChEMBL document CHEMBL5579895, “Discovery of TYRA-300: First Oral Selective FGFR3 Inhibitor for the Treatment of Urothelial Cancers and Achondroplasia” (J Med Chem, 2024)

Columns and labels:
[1] = Inhibition of recombinant FGFR3/BAIAP2L1 (unknown origin) transduced in mouse BaF3 cells incubated for 48 hrs by Cell Titer Glo assay; assay type: cell-based; settings: BaF3, 48 h
[2] = Inhibition of recombinant BCR/FGFR1 (unknown origin) transduced in mouse BaF3 cells incubated for 48 hrs by Cell Titer Glo assay; assay type: cell-based; settings: BaF3, 48 h
[3] = Inhibition of recombinant BCR/FGFR2 (unknown origin) transduced in mouse BaF3 cells incubated for 48 hrs by Cell Titer Glo assay; assay type: cell-based; settings: BaF3, 48 h
[4] = Inhibition of recombinant BCR/FGFR4 (unknown origin) transduced in mouse BaF3 cells incubated for 48 hrs by Cell Titer Glo assay; assay type: cell-based; settings: BaF3, 48 h
[5] = Stability in human hepatocytes assessed as half life at 1 uM incubated upto 180 mins by LC-MS/MS analysis; assay type: ADME, cell-based, Hepatocyte

COc1cc2[nH]nc(-c3ccc(N4CC5(C4)CN(S(C)(=O)=O)C5)nc3)c2cc1O[C@H](C)c1c(Cl)cncc1Cl showed an IC50 [1] of 0.8 nM, an IC50 [2] of 14 nM and an IC50 [3] of 6.9 nM. It also gave an IC50 [4] of 4.5 nM.

Molecule C[C@@H](Oc1ccc2[nH]nc(-c3cnc(N4CC5(C4)CN(S(C)(=O)=O)C5)cn3)c2c1)c1c(Cl)cncc1Cl has an IC50 [1] of 16 nM, an IC50 [2] of 189 nM and an IC50 [3] of 97 nM. For the same molecule, the IC50 [4] was 21 nM and the half-life at 1 µM [5] was over 100 min.

In the case of C[C@@H](Oc1ccc2[nH]nc(-c3ccc(Cl)nc3)c2c1)c1c(Cl)cncc1Cl, the IC50 [1] is reported as 110 nM, the IC50 [2] is reported as 1040 nM and the IC50 [3] is reported as 451 nM. For the same molecule, the IC50 [4] was 2200 nM.

With CC(C)N1CC2(CN(c3ccc(-c4n[nH]c5ccc(O[C@H](C)c6c(Cl)cncc6Cl)cc45)cn3)C2)C1 the IC50 [1] was 4.1 nM, the IC50 [2] was 59 nM and the IC50 [3] was 35 nM. The IC50 [4] was 22 nM and the half-life at 1 µM [5] was 51 min.

C[C@@H](Oc1ccc2[nH]nc(-c3ccc(N4CC5(CN(C(=O)N(C)C)C5)C4)nc3)c2c1)c1c(Cl)cncc1Cl gave an IC50 [1] of 17 nM, an IC50 [2] of 234 nM and an IC50 [3] of 202 nM. The IC50 [4] was 469 nM and the half-life at 1 µM [5] was 14 min.

Work on C[C@@H](Oc1ccc2[nH]nc(-c3ccc(N4CCC5(CCOC5)CC4)nc3)c2c1)c1c(Cl)cncc1Cl yielded an IC50 [1] of 48 nM, an IC50 [2] of 711 nM and an IC50 [3] of 360 nM. The IC50 [4] was 835 nM.

C[C@@H](Oc1ccc2[nH]nc(/C=C/c3cnn(CCO)c3)c2c1)c1c(Cl)cncc1Cl [LY-2874455] gave an IC50 [1] of 0.2 nM, an IC50 [2] of 0.5 nM and an IC50 [3] of 0.2 nM. The IC50 [4] was 2 nM.

For Cc1ncc(Cl)c([C@@H](C)Oc2ccc3[nH]nc(-c4ccc(N5CC6(C5)CN(S(C)(=O)=O)C6)nc4)c3c2)c1Cl, the IC50 [1] was 10 nM, the IC50 [2] was 176 nM and the IC50 [3] was 47 nM. It also gave a half-life at 1 µM [5] of 64 min.

Work on C[C@@H](Oc1ccc2[nH]nc(-c3ccc(N4CC5(C4)CN(S(C)(=O)=O)C5)nc3)c2c1)c1c(Cl)cccc1Cl yielded an IC50 [1] of 30 nM and an IC50 [2] of 405 nM.

C[C@@H](Oc1ccc2[nH]nc(-c3ccc(N4CC5(C4)CN(S(C)(=O)=O)C5)nc3)c2c1)c1c(Cl)cnc(F)c1Cl gave an IC50 [1] of 16 nM and an IC50 [2] of 258 nM.

Work on C[C@@H](Oc1cc2c(-c3ccc(N4CC5(C4)CN(S(C)(=O)=O)C5)nc3)n[nH]c2cc1F)c1c(Cl)cncc1Cl yielded an IC50 [1] of 6.3 nM, an IC50 [2] of 84 nM and an IC50 [3] of 56 nM. The IC50 [4] was 40 nM and the half-life at 1 µM [5] was over 100 min.

CCS(=O)(=O)N1CC2(CN(c3ccc(-c4n[nH]c5ccc(O[C@H](C)c6c(Cl)cncc6Cl)cc45)cn3)C2)C1 showed an IC50 [1] of 40 nM, an IC50 [2] of 390 nM and an IC50 [3] of 290 nM. It also gave an IC50 [4] of 529 nM.

In the case of C[C@@H](Oc1cc2c(-c3ccc(N4CC5(C4)CN(S(C)(=O)=O)C5)nc3)n[nH]c2cc1Cl)c1c(Cl)cncc1Cl, the IC50 [1] is reported as 6.2 nM, the IC50 [2] is reported as 60 nM and the IC50 [3] is reported as 35 nM. It also gave an IC50 [4] of 37 nM.

Work on C[C@H](Oc1ccc2[nH]nc(-c3ccc(N4CC5(C4)CN(S(C)(=O)=O)C5)nc3)c2c1)c1c(Cl)cnnc1Cl yielded an IC50 [1] of 179 nM and an IC50 [2] of 2000 nM.

C[C@@H](Oc1ccc2[nH]nc(-c3ccc(N4CC5(C4)CS(=O)(=O)C5)nc3)c2c1)c1c(Cl)cncc1Cl showed an IC50 [1] of 26 nM, an IC50 [2] of 228 nM and an IC50 [3] of 191 nM. It also gave an IC50 [4] of 300 nM.

C[C@H](Oc1ccc2[nH]nc(-c3ccc(N4CC5(C4)CN(S(C)(=O)=O)C5)nc3)c2c1)c1c(Cl)cncc1Cl showed an IC50 [1] of 133 nM.

Cc1cncc(C)c1[C@@H](C)Oc1ccc2[nH]nc(-c3ccc(N4CC5(C4)CN(S(C)(=O)=O)C5)nc3)c2c1 gave an IC50 [1] of 8.1 nM, an IC50 [2] of 135 nM and an IC50 [3] of 86 nM. For the same molecule, the IC50 [4] was 52 nM and the half-life at 1 µM [5] was 32 min.

With C[C@@H](Oc1ccc2[nH]nc(-c3ccc(N4CCC5(CCCO5)CC4)nc3)c2c1)c1c(Cl)cncc1Cl the IC50 [1] was 97 nM, the IC50 [2] was 872 nM and the IC50 [3] was 503 nM. The IC50 [4] was 2030 nM.

Molecule CCOC(=O)N1CC2(C1)CN(c1ccc(-c3n[nH]c4ccc(O[C@H](C)c5c(Cl)cncc5Cl)cc34)cn1)C2 has an IC50 [1] of 22 nM, an IC50 [2] of 434 nM and an IC50 [3] of 248 nM. For the same molecule, the IC50 [4] was 418 nM and the half-life at 1 µM [5] was 27 min.
